# Experimental data published in article PMC10125213 (Journal of Molecular Biology, 2023).
# pIC50: −log10 of the molar value. Where two headings read alike, the source gives them in different places.
# Tests used:
# WT S protein = WT S protein (Severe acute respiratory syndrome coronavirus 2, UniProt P0DTC2); experiment: biochemical; type: binding
# WT RBD = WT RBD (Severe acute respiratory syndrome coronavirus 2, UniProt P0DTC2); type: binding
smiles,measurement,setting,value
"N[C@@H](CCC(=O)N[C@@H](CS)C(=O)NCC(=O)O)C(=O)O [GSH, reduced glutathione]",effects on WT S protein,WT S protein,did not exhibit any effects
"CC(=O)N[C@@H](CS)C(=O)O [NAC, N-acetylcysteine]",effects on WT S protein,WT S protein; 37 °C 60 min,did not exhibit any effects
"O=C(O)CCP(CCC(=O)O)CCC(=O)O [TCEP, tris-(2-carboxyethyl)phosphine]",effect on WT RBD,WT RBD,marginal effect
NCCCNCCS [WR1065],pIC50,"WT S protein; IC50, 37 °C 60 min",2.00 to 3.00
